From ChEMBL document CHEMBL1125738, “A ring-enlarged oxetanocin A analogue as an inhibitor of HIV infectivity” (1991)

Tested on: Human immunodeficiency virus 1
Assay: Cytopathogenic effect was evaluated against Human immunovirus-1 (HIV-1).
Assay type: functional

| SMILES | Protective dose |
| --- | --- |
| Nc1ncnc2c1ncn2[C@@H]1O[C@H](CO)[C@H]1CO | 100 µM |
| Nc1ncnc2c1ncn2[C@H]1C[C@H](CO)[C@@H](CO)O1 | 10 µM |
